Source: PubChem BioAssay (NCI)
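Interpolation was linear, between the two tested concentrations surrounding the appropriate level; five concentrations were tested over 48 hours in 96-well plates. GI50 is the concentration that inhibits growth by half. Definition used: TGI = concentration required for complete inhibition of growth.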

Legend:
Experiment in all cases: DTP human tumour cell line panel, 48 h
A549 NSCLC = test system: A549 NSCLC
IGROV1 ovarian = test system: IGROV1 ovarian
MDA-MB-231 breast = test system: MDA-MB-231 breast
NCI-H522 lung = test system: NCI-H522 lung
RXF 393 renal = test system: RXF 393 renal
SK-MEL-2 melanoma = test system: SK-MEL-2 melanoma
SK-MEL-5 melanoma = test system: SK-MEL-5 melanoma
SR leukemia = test system: SR leukemia
T-47D breast = test system: T-47D breast
UACC-62 melanoma = test system: UACC-62 melanoma

Row | Structure (SMILES) | TGI (A549 NSCLC) | TGI (IGROV1 ovarian) | TGI (MDA-MB-231 breast) | TGI (NCI-H522 lung) | TGI (RXF 393 renal) | TGI (SK-MEL-2 melanoma) | TGI (SK-MEL-5 melanoma) | TGI (SR leukemia) | TGI (T-47D breast) | TGI (UACC-62 melanoma) | GI50 (MDA-MB-231 breast) | GI50 (NCI-H522 lung) | GI50 (RXF 393 renal) | GI50 (SK-MEL-5 melanoma) | GI50 (SR leukemia) | GI50 (T-47D breast) | GI50 (UACC-62 melanoma) | GI50 (A549 NSCLC) | GI50 (IGROV1 ovarian) | GI50 (SK-MEL-2 melanoma)
1 | CN(C)CCOC(=O)COc1ccc(Cl)cc1 | > 100 µM | > 100 µM | > 100 µM | > 100 µM | > 100 µM | > 100 µM | > 100 µM | > 100 µM | > 100 µM | > 100 µM | – | – | – | – | – | – | – | – | – | –
2 | O=C(Nn1c(-c2ccccc2)nc2ccccc2c1=O)c1ccccn1 | > 100 µM | > 100 µM | > 100 µM | > 100 µM | > 100 µM | – | > 100 µM | > 100 µM | > 100 µM | > 100 µM | – | – | – | – | – | – | – | – | – | –
3 | O=C(O)C(CCc1ccccn1)c1ccccc1 (stereo not drawn) | > 100 µM | > 100 µM | > 100 µM | > 100 µM | > 100 µM | > 100 µM | > 100 µM | > 100 µM | > 100 µM | > 100 µM | – | – | – | – | – | – | – | – | – | –
4 | COc1ccc(C(O)c2ccc3c(c2)OCO3)cc1 (stereo not drawn) | > 100 µM | > 100 µM | > 100 µM | > 100 µM | > 100 µM | – | – | > 100 µM | > 100 µM | > 100 µM | – | – | – | – | – | – | – | – | – | –
5 | O=C(c1ccccc1)c1c(C(F)(F)F)n([O-])c2ccccc2[n+]1=O | – | 0.489 µM | – | 2 µM | 3.83 µM | 3.43 µM | – | 0.413 µM | 2.85 µM | 3.52 µM | – | – | – | – | – | – | – | – | – | –
6 | CCOC(=O)c1cc2c(OC(C)=O)ccc(OC(C)=O)c2s1 | 28.6 µM | 6.52 µM | 4.64 µM | 1.07 µM | 3.42 µM | 7.72 µM | 6.69 µM | > 22.7 µM | – | 4.08 µM | – | – | – | – | – | – | – | – | – | –
7 | Cn1c(=O)c2c(-c3ccccc3)onc2n(C)c1=O | > 100 µM | 55.3 µM | > 100 µM | > 100 µM | > 100 µM | 81.8 µM | > 100 µM | 75.2 µM | > 100 µM | > 100 µM | – | – | – | – | – | – | – | – | – | –
8 | CN(CCc1ccc(Cl)c(Cl)c1)[C@H]1CCCC[C@H]1N1CCCC1 | > 100 µM | > 100 µM | > 100 µM | > 100 µM | > 100 µM | > 100 µM | > 100 µM | > 100 µM | > 100 µM | > 100 µM | – | – | – | – | – | – | – | – | – | –
9 | Cc1cccc(C(C)(C)C)c1NC(=O)/C(Cc1nc2ccc([N+](=O)[O-])cc2[nH]c1=O)=N/NC(=O)C[N+](C)(C)C | > 100 µM | > 100 µM | > 100 µM | > 100 µM | – | > 100 µM | > 100 µM | – | > 100 µM | > 100 µM | – | – | – | – | – | – | – | – | – | –
10 | CCCCC[C@@H]1OCO[C@@]2(C)/C=C(C)/C=C/C(=O)O[C@H]([C@@H](C)[C@@H](O)[C@H](C)[C@@]3(O)C[C@@H](O[C@H]4C[C@@H](O)[C@H](O)[C@@H](C)O4)[C@H](C)[C@@H](C)O3)[C@@H](OC)/C=C/C=C(\C)C[C@@H]1[C@@H]2O (stereo in doubt) | 0.733 µM | 8.22 µM | 1.59 µM | 7.46 µM | 1.19 µM | < 0.005 µM | < 0.005 µM | < 0.005 µM | 9.09 µM | < 0.005 µM | – | – | – | – | – | – | – | – | – | –
11 | COc1cc2cc(C(=O)N3CC(CCl)c4c3cc(N)c3ccccc43)[nH]c2cc1OCCN(C)C (stereo not drawn) | 6 µM | 0.00522 µM | 0.0173 µM | – | < 0.005 µM | 0.00726 µM | – | – | 0.0394 µM | 0.00871 µM | – | – | – | – | – | – | – | – | – | –
12 | CC(=O)O[C@H]1C#C/C=C\C#CC[C@@H]2C(=O)N(C(=O)OC(C)(C)C)[C@@H]12 | > 100 µM | > 100 µM | > 100 µM | 47.8 µM | 56.4 µM | > 93 µM | > 100 µM | > 100 µM | 88.6 µM | > 100 µM | – | – | – | – | – | – | – | – | – | –
13 | COC(=O)c1sc(=S)sc1SCc1ccccc1CSc1sc(=S)sc1C(=O)OC | > 100 µM | > 100 µM | > 100 µM | > 100 µM | > 100 µM | > 100 µM | > 100 µM | – | – | > 100 µM | – | – | – | – | – | – | – | – | – | –
14 | O=C1c2[nH]cc(CN3CCNCC3)c2C(=O)c2c1c(O)c1ccccc1c2O | – | – | 3.18 µM | 3.65 µM | 71.2 µM | – | 3.14 µM | > 100 µM | 34.4 µM | 3.28 µM | 1.51 µM | 1.76 µM | 23.9 µM | 1.64 µM | 6.09 µM | 13.8 µM | 1.71 µM | – | – | –
15 | Clc1nc(-[n+]2ccc(-c3ccncc3)cc2)nc(Nc2ccccc2)c1Cl | > 100 µM | > 100 µM | > 100 µM | – | > 100 µM | > 100 µM | > 100 µM | 77.4 µM | > 100 µM | > 100 µM | – | – | – | – | – | – | – | – | – | –
16 | N#Cc1c(Nc2ccc(F)cc2)[n+]([O-])c2ccc(Cl)cc2[n+]1[O-] | 35.9 µM | 4.02 µM | 16.7 µM | – | 27.3 µM | 77.9 µM | 23.1 µM | – | 38.9 µM | 17.2 µM | – | – | – | – | – | – | – | – | – | –
17 | CC(NC(=O)/C(=C/c1ccccc1O)NC(=O)c1ccccc1)C(=O)O (stereo not drawn) | > 100 µM | > 100 µM | 60 µM | 50 µM | 57.6 µM | – | > 100 µM | – | > 100 µM | > 100 µM | – | – | – | – | – | – | – | – | – | –
18 | COc1ccc(C2(c3ccc(OC)cc3)OC(=O)c3cccc4cccc2c34)cc1 | > 100 µM | > 100 µM | > 100 µM | – | > 100 µM | > 100 µM | > 100 µM | 44.8 µM | 80.8 µM | > 100 µM | – | – | – | – | – | – | – | – | – | –
19 | CCc1nnc(-n2c(C)nc3cc(Cl)ccc3c2=O)s1 | > 100 µM | > 100 µM | > 100 µM | 75.4 µM | > 100 µM | – | 65.9 µM | > 100 µM | > 100 µM | 61.7 µM | – | – | – | – | – | – | – | – | – | –
20 | CC(CCC(=O)O)[C@H]1CCC2[C@H]3C(CC[C@@]21C)[C@@]1(C)CCC(O)C[C@H]1C[C@@H]3O (stereo partly drawn) | > 100 µM | > 100 µM | > 100 µM | > 100 µM | > 100 µM | > 100 µM | – | > 100 µM | > 100 µM | > 100 µM | – | – | – | – | – | – | – | – | – | –
21 | N#Cc1c(NC(=O)c2ccccc2)sc2c1CCC(=O)C2 | > 100 µM | 11 µM | 6.28 µM | 4.66 µM | 3.65 µM | 8.65 µM | 3.22 µM | – | – | 1.93 µM | 1.99 µM | 0.358 µM | 1.17 µM | 1.65 µM | – | – | 0.404 µM | 6.7 µM | 1.59 µM | 2.45 µM
